# Laboratory results reported in ChEMBL document CHEMBL4382196, “Unraveling the Prenylation-Cancer Paradox in Multiple Myeloma with Novel Geranylgeranyl Pyrophosphate Synthase (GGPPS) Inhibitors” (J Med Chem, 2018).
# Activity calls are given as the source filed them. The calls are words filed in the database; no cut-off is given here.
# Key:
# [1] = system: Hydroxyapatite; test: Binding affinity to bone mineral hydroxyapatite at 50 uM by 1H NMR assay
# [2] = target: T1, Geranylgeranyl pyrophosphate synthase (Homo sapiens, UniProt O95749)
# T1 sequence (O95749 whole entry): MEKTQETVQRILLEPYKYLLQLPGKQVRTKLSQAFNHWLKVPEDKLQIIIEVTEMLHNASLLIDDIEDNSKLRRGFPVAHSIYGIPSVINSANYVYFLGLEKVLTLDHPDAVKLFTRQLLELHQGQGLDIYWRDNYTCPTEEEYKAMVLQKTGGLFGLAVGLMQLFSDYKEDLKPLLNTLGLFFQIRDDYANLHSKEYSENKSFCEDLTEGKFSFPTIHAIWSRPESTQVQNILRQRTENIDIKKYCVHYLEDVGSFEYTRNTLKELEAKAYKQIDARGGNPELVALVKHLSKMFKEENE
# [3] = target: Geranylgeranyl pyrophosphate synthase (Homo sapiens, UniProt O95749, Y246D)
# Chain of Geranylgeranyl pyrophosphate synthase (Homo sapiens, UniProt O95749, Y246D) (O95749 whole entry Y246D): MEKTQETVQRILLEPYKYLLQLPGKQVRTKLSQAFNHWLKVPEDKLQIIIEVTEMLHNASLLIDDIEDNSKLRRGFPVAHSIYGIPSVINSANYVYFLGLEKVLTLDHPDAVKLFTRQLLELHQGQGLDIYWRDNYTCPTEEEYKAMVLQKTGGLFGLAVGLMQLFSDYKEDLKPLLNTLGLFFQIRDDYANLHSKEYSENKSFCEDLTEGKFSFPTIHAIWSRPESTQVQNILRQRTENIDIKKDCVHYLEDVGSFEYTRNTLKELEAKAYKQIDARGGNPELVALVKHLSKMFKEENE
# [4] = system: RPMI-8226; test: cells; conditions: Homo sapiens, RPMI-8226, 72 h
# [5] = target: T2, Farnesyl pyrophosphate synthase (Homo sapiens, UniProt P14324); test: Inhibition of human FPPS using [14C]-IPP and […] after 10 mins by scintillation counting
# T2 sequence (P14324 whole entry): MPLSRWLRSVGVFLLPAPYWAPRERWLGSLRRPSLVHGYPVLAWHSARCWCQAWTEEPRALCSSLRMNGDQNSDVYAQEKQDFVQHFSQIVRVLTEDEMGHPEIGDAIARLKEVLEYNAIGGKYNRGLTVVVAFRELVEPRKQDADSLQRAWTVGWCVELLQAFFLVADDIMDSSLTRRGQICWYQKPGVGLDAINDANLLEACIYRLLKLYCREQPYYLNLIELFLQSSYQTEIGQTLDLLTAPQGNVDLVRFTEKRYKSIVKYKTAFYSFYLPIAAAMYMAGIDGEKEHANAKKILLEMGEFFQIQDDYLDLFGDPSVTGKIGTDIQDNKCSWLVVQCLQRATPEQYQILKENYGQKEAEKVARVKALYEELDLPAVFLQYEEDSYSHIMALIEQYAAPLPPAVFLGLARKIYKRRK
# [6] = system: RPMI-8226; test: Induction of apoptosis in human RPMI8226 cells after 72 hrs by APC Annexin V/eFluor-780-viability double staining-based FACS analysis; format: functional, cell-based
# [7] = target: T3, Geranylgeranyl pyrophosphate synthase (Homo sapiens) (UniProt O95749); test: Inhibition of human N-terminal His6-tagged GGPPS expressed in Escherichia coli BL21(DE3) at 1 uM using [14C]-IPP and FPP as substrates after 10 mins by scintillation counting relative to control
# T3 sequence (whole entry): T1 sequence (O95749 whole entry)
# [8] = target: T4, Farnesyl pyrophosphate synthase (Homo sapiens) (UniProt P14324); test: Inhibition of human FPPS at 1 uM using [14C]-IPP and […] after 10 mins by scintillation counting relative to control
# T4 sequence (whole entry): T2 sequence (P14324 whole entry)
# [9] = system: RPMI-8226; test: Induction of apoptosis in human RPMI8226 cells assessed as viable cells at 1 uM after 72 hrs by APC Annexin V/eFluor-780-viability double staining-based FACS analysis (reference value: 87.3%); format: functional; conditions: RPMI-8226, 72 h, read-out: Activity
# [10] = system: RPMI-8226; test: Induction of apoptosis in human RPMI8226 cells assessed as early apoptotic cells at 1 uM after 72 hrs by APC Annexin V/eFluor-780-viability double staining-based FACS analysis (reference value: 3.31%); format: functional
# [11] = system: RPMI-8226; test: Induction of apoptosis in human RPMI8226 cells assessed as late apoptotic cells at 1 uM after 72 hrs by APC Annexin V/eFluor-780-viability double staining-based FACS analysis (reference value: 5.80%); format: functional
# [12] = system: RPMI-8226; test: Induction of apoptosis in human RPMI8226 cells assessed as necrotic cells at 1 uM after 72 hrs by APC Annexin V/eFluor-780-viability double staining-based FACS analysis (reference value: 3.60%); format: functional
# [13] = system: RPMI-8226; test: Induction of apoptosis in human RPMI8226 cells assessed as viable cells at 1 uM after 72 hrs in presence GGOH by APC Annexin V/eFluor-780-viability double staining-based FACS analysis (reference value: 87.3%); format: functional; conditions: RPMI-8226, 72 h, read-out: Activity
# [14] = system: RPMI-8226; test: Induction of apoptosis in human RPMI8226 cells assessed as early apoptotic cells at 1 uM after 72 hrs in presence GGOH by APC Annexin V/eFluor-780-viability double staining-based FACS analysis (reference value: 3.31%); format: functional
# [15] = system: RPMI-8226; test: Induction of apoptosis in human RPMI8226 cells assessed as late apoptotic cells at 1 uM after 72 hrs in presence GGOH by APC Annexin V/eFluor-780-viability double staining-based FACS analysis (reference value: 5.80%); format: functional
# [16] = system: RPMI-8226; test: Induction of apoptosis in human RPMI8226 cells assessed as necrotic cells at 1 uM after 72 hrs in presence GGOH by APC Annexin V/eFluor-780-viability double staining-based FACS analysis (reference value: 3.60%); format: functional
# [17] = system: NCI/ADR-RES; test: Antiproliferative activity against human NCI-ADR-RES cells after 72 hrs by celltiter-glo luminescent assay; format: functional, cell-based
# [18] = system: MIA PaCa-2; test: Antiproliferative activity against human MIAPaCa2 cells at 10 uM after 72 hrs by celltiter-glo luminescent assay; format: functional, cell-based
# [19] = Half life in CD1 mouse liver microsomes by LC-MS/MS analysis; format: ADME, Microsome
# [20] = Half life in Sprague-Dawley rat liver microsomes by LC-MS/MS analysis; format: ADME, Microsome
# [21] = Half life in human liver microsomes by LC-MS/MS analysis; format: ADME, Microsome
# [22] = Toxicity in Vk*MYC transgenic mouse model assessed as weight loss at 3 mg/kg/day, ip administered over 14 days and measured at 4 hrs post last dose (reference value: 10 to 16%); format: organism-based; conditions: in vivo
# [23] = Hepatotoxicity in Vk*MYC transgenic mouse model assessed as effect of serum AST levels at 3 mg/kg/day, ip administered over 14 days and measured at 4 hrs post last dose relative to control; format: toxicity, organism-based; conditions: in vivo
# [24] = Hepatotoxicity in Vk*MYC transgenic mouse model assessed as effect of serum ALT levels at 3 mg/kg/day, ip administered over 14 days and measured at 4 hrs post last dose relative to control; format: toxicity, organism-based; conditions: in vivo
smiles,measurement,setting,value
O=C(Nc1ccccc1)c1cccc(-c2nc(NC(P(=O)(O)O)P(=O)(O)O)c3ccsc3n2)c1,Activity,[1],Active
same,IC50,[2],49 nM
same,IC50,[3],50 nM
same,EC50,[4],460 nM
Cc1ccc(C(=O)Nc2cccc(-c3nc(NC(P(=O)(O)O)P(=O)(O)O)c4ccsc4n3)c2)cc1,IC50,[5],2600 nM
same,Activity,[6],Dose-dependent effect
same,EC50,[4],720 nM
O=P(O)(O)C(Nc1ncnc2sccc12)P(=O)(O)O,IC50,[5],800 nM
same,inhibition,[7],40%
same,inhibition,[8],70%
same,IC50,[2],> 1000 nM
O=P(O)(O)C(O)(Cc1ccccn1)P(=O)(O)O,Activity,[1],Active
same,EC50,[4],11000 nM
O=P(O)(O)C(Nc1nc(-c2ccccc2)nc2sccc12)P(=O)(O)O,IC50,[5],550 nM
O=P(O)(O)C(Nc1ncnc2sc(-c3ccc(C(F)(F)F)cc3)cc12)P(=O)(O)O,IC50,[2],1500 nM
same,EC50,[4],> 100000 nM
COc1ccc(NC(=O)c2cccc(-c3nc(NC(P(=O)(O)O)P(=O)(O)O)c4ccsc4n3)c2)cc1F,IC50,[5],1400 nM
same,viability at 1 µM,[9],12.3%
same,Activity,[10],4.42%
same,Activity,[11],43%
same,Activity,[12],40.2%
same,viability at 1 µM,[13],85.4%
same,Activity,[14],3.06%
same,Activity,[15],6.18%
same,Activity,[16],5.33%
same,Activity,[17],Active
same,Activity,[18],Active
same,t1/2,[19],2.13 h
same,t1/2,[20],3.12 h
same,t1/2,[21],2.57 h
same,Activity,[22],15 to 28%
same,Activity,[23],Toxic
same,Activity,[24],Toxic
same,Activity,[1],Active
COc1ccc(C(=O)Nc2cccc(-c3nc(NC(P(=O)(O)O)P(=O)(O)O)c4ccsc4n3)c2)cc1,IC50,[3],92 nM
